Series [1] concerns human P-gp (MDR1). In words: MDR1-MDCK permeability. The following applies: dog. Type of series: in vitro ADME. How it is done:
MDR1-MDCK Permeability: Experimental Procedure
MDR1-MDCK cells obtained from the NIH (Rockville, Md., USA) are used between passage numbers 6-30. Cells are seeded onto Millipore Multiscreen Transwell plates at 3.4×10^5 cells/cm2. The cells are cultured in DMEM and media is changed on day 3. On day 4 the permeability study is performed. Cell culture and assay incubations are carried out at 37° C. in an atmosphere of 5% CO2 with a relative humidity of 95%. On the day of the assay, the monolayers are prepared by rinsing both basolateral and apical surfaces twice with Hanks Balanced Salt Solution (HBSS) at the desired pH warmed to 37° C. Cells are then incubated with HBSS at the desired pH in both apical and basolateral compartments for 40 min to stabilise physiological parameters.
The dosing solutions are prepared by diluting test compound with assay buffer to give a final test compound concentration of 10 μM (final DMSO concentration of 1% v/v). The fluorescent integrity marker lucifer yellow is also included in the dosing solution. Analytical standards are prepared from test compound DMSO dilutions and transferred to buffer, maintaining a 1% v/v DMSO concentration.
For assessment of A-B permeability, HBSS is removed from the apical compartment and replaced with test compound dosing solution. The apical compartment insert is then placed into a companion plate containing fresh buffer (containing 1% v/v DMSO). For assessment of B-A permeability, HBSS is removed from the companion plate and replaced with test compound dosing solution. Fresh buffer (containing 1% v/v DMSO) is added to the apical compartment insert, which is then placed into the companion plate.
At 60 min the apical compartment inserts and the companion plates are separated and apical and basolateral samples diluted for analysis.
Test compound permeability is assessed in duplicate. Compounds of known permeability characteristics are run as controls on each assay plate.
Test and control compounds are quantified by LC-MS/MS cassette analysis using an 8-point calibration with appropriate dilution of the samples. The starting concentration (C0) is determined from the dosing solution and the experimental recovery calculated from C0 and both apical and basolateral compartment concentrations.
The integrity of the monolayer throughout the experiment is checked by monitoring lucifer yellow permeation using fluorimetric analysis. Lucifer yellow permeation is high if monolayers have been damaged.

The nature of series [2]: Plasma protein binding (equilibrium dialysis), rat. It is filed as in vitro ADME. The following applies: plasma (100%). The protocol: (§1) Protein Binding Determination: Experimental Procedure
(§2) Solutions of test compound (5 μM, 0.5% final DMSO concentration) are prepared in buffer (pH 7.4) and 100% species-specific plasma. The experiment is performed using equilibrium dialysis with the two compartments separated by a semi-permeable membrane. The buffer solution is added to one side of the membrane and the plasma solution to the other side. After equilibration, samples are taken from both sides of the membrane. Standards are prepared in plasma and buffer and are incubated at 37° C.
(§3) Test compound incubations are performed in duplicate. A control compound is included in each experiment.
(§4) The solutions for each batch of compounds are combined into two groups (protein-free and protein-containing), then cassette analysed by LC-MS/MS using two sets of calibration standards for protein-free (7 points) and protein-containing solutions (6 points).
(Equilibrium dialysis compares concentrations on both sides of a semipermeable membrane.)

Series [3] is described as follows: Plasma protein binding (equilibrium dialysis), dog. It is filed as in vitro ADME. The following applies: plasma (100%). How it is done: as §1, §2, §3, §4
A short description of series [4]: In vivo pharmacokinetics in rats (IV and PO). On the set-up: species or system male Sprague Dawley rats. Particulars: rat; for Vd: 1 mg/kg (IV). How it is done: The pharmacokinetics of compounds were studied in vivo in male Sprague Dawley rats at doses of 1 mg/kg (IV) and 10 mg/kg (PO).
Sprague Dawley rats were treated with experimental compounds via intravenous and oral administration. Three animals for each route of administration were used with serial blood sampling at ten time points post dosing of compound.
Animals were weighed and used if between 200-250 g. Serial blood samples were collected at 0.02, 0.08, 0.25, 0.50, 1, 2, 4, 6, 8 and 24 hours post dosing. […] Blood samples were delivered into an anticoagulant (sodium heparin) and centrifuged at 4° C. Plasma samples were subsequently stored frozen at less than −20° C. prior to analysis.
Following protein precipitation with acetonitrile, samples were analysed with tandem liquid chromatography/mass spectrometry using electrospray ionisation. A full matrix curve with internal standards was employed and PK parameters were calculated.
In a similar manner, oral administration was performed by gavage at doses of 5 or 10 mg/kg at a concentration of 5 mg/ml in 1% Methyl cellulose (Sigma M7140), 0.1% Tween 80 in water. Serial samples were taken as described above.
RV039 was administered at doses of 1 mg/kg (IV) and 5 mg/kg (PO).

A short description of series [5]: Liver microsomal stability, dog. It is filed as in vitro ADME. The following applies: male, Beagle, pooled liver microsomes, pH 7.4, Comparative Example 2, read-out: Liver Microsomal Stability T1/2, dog (Table 5). How it is done:
Microsomal Incubation: Experimental Procedure
Pooled human liver microsomes (pooled male and female), pooled rat liver microsomes (male Sprague Dawley rats) and pooled dog liver microsomes (male Beagle dog) are purchased from a reputable commercial supplier and stored at −80° C. prior to use.
Microsomes (final protein concentration 0.5 mg/mL), 0.1 M phosphate buffer pH 7.4 and test compound (final substrate concentration 3 μM; final DMSO concentration 0.25%) are pre-incubated at 37° C. prior to the addition of NADPH (final concentration 1 mM) to initiate the reaction. The final incubation volume is 50 μL. A control incubation is included for each compound tested where 0.1 M phosphate buffer pH 7.4 is added instead of NADPH (minus NADPH). Two control compounds are included with each species. All incubations are performed singularly for each test compound.
Compounds are incubated for 0, 5, 15, 30 and 45 min. The control (minus NADPH) is incubated for 45 min only. The reactions are stopped by transferring 25 μL of incubate to 50 μL methanol at the appropriate time points. The termination plates are centrifuged at 2,500 rpm for 20 min at 4° C. to precipitate the protein. Following protein precipitation, the sample supernatants are combined in cassettes of up to 4 compounds, internal standard is added and samples analysed by LC-MS/MS. From a plot of ln peak area ratio (compound peak area/internal standard peak area) against time, the gradient of the line is determined. Subsequently, half-life and intrinsic clearance are calculated

Like-named read-outs stand apart in the source and are kept apart here. Some results are limits rather than exact numbers.

Usually Papp A→B stands for how fast a substance crosses the layer from the apical side. What is called Papp B→A is how fast a substance crosses the layer from the basolateral side. As usually defined, the fraction unbound is free concentration divided by total concentration. The term bioavailability denotes dose-corrected exposure relative to a reference, in per cent. One may read the Tmax as the time from dosing to the highest level. Turning to `NCc1ccc2c(c1)nc(CN1C(=O)C3(CC3)c3ccc(F)cc31)n2CCCC(F)(F)F` [Example 1, 1′-{[5-(Aminomethyl)-1-(4,4,4-trifluorobutyl)-1H-1,3-benzodiazol-2-yl]methyl}-6′-fluoro-1′,2′-dihydrospiro[cyclopropane-1,3′-indole]-2′-one], the Papp A→B at 60 min, 10 μM in series [1] (A-B, 10 μM, 60 min, read-out: Permeability (Human Pgp transfected) MDCK Papp A-B) is 0.5 ×10⁻⁶ cm/s. In addition, the Papp B→A at 60 min, 10 μM in series [1] (B-A, 10 μM, 60 min, read-out: Permeability (Human Pgp transfected) MDCK Papp B-A) turned out to be 73 ×10⁻⁶ cm/s. Besides, the fraction unbound at 5 μM is 0.52 in series [2] (pH 7.4, 5 μM, read-out: PPB fraction unbound, rat) and 0.27 in series [3] (pH 7.4, 5 μM, read-out: PPB fraction unbound, dog). For the same molecule, in series [4] (in vivo, male Sprague Dawley rats, 1 mg/kg (IV) and 10 mg/kg (PO), read-out: Bioavailability), the bioavailability came out at 42%. Also, the Vd in series [4] (in vivo, male Sprague Dawley rats, read-out: Volume of distribution) was determined as 22 L/kg. The Tmax in series [4] (in vivo, male Sprague Dawley rats, 10 mg/kg (PO), read-out: Tmax PO) was 2.7 h.

With `CC(C)CCn1c(CN2C(=O)C3(CC3)c3ccccc32)nc2cc(CN)ccc21` [RV039, 1′-((5-(aminomethyl)-1-isopentyl-1H-benzo[d]imidazol-2-yl)methyl)spiro[cyclopropane-1,3′-indolin]-2′-one, reference compound], the half-life at 3 μM in series [5] was above 1.67 h. In addition, in series [1], the Papp A→B at 60 min, 10 μM amounted to 0.42 ×10⁻⁶ cm/s and the Papp B→A at 60 min, 10 μM is 49 ×10⁻⁶ cm/s. In addition, the fraction unbound at 5 μM in series [2] (pH 7.4, Comparative Example 2, read-out: PPB fraction unbound, rat (Table 5)) turned out to be 0.1. For the same molecule, the fraction unbound at 5 μM in series [3] (pH 7.4, Comparative Example 2, read-out: PPB fraction unbound, dog (Table 5)) is 0.1. In series [4] (male, Sprague Dawley, plasma, rats, 1 mg/kg (IV) and 5 mg/kg (PO), Comparative Example 3, read-out: Bioavailability (Table 6)), the bioavailability came out at 4.5%. In addition, the Vd in series [4] (male, Sprague Dawley, plasma, rats, Comparative Example 3, read-out: Volume of distribution (Table 6)) turned out to be 47 L/kg. The Tmax in series [4] (male, Sprague Dawley, plasma, rats, 5 mg/kg (PO), Comparative Example 3, read-out: Tmax PO (Table 6)) came to 7.3 h.
